Source: US9701962B2, “Hydrophobically modified antisense oligonucleotides comprising a ketal group” (Institut National de la Sante et de la Recherche Medicale …, priority 2013, dated 2017)
Strand notation (5' to 3'): a small letter for the sugar, then the base; units joined by * are phosphorothioate-linked, units joined directly phosphodiester-linked; [ ] holds rarer units or linkages, { } end groups; capitals alone tell only the bases. {(C15)2U} = uridine bearing a ketal whose carbon carries two C15 hydrocarbon chains (palmitone ketal); {C8F17} = hydrophobic mono-chain with C8F17 fluorocarbon moiety; d = 2'-deoxy (DNA)

Key:
[1] = test system: TCTP protein and cell growth; assay: Screening of ASOs targeting TCTP mRNA for the lead sequence; assay type: cell-based, human; conditions: 15 sequences tested
Experimental: The design, synthesis and screening of ASOs targeting TCTP mRNA were performed to determine the lead sequence. Among the 27 sequences, 12 were withdrawn (lack of specificity, high GC percentage) and 15 have been tested among which, 3 have been selected (#10 of sequence SEQ ID NO: 2, #14 of sequence SEQ ID NO: 7, #15 of sequence SEQ ID NO: 6) for their efficiency to inhibit TCTP protein and cell growth.

TCTP protein = TCTP protein expression by western blot in transfected PC-3 cells; assay type: cell-based, human; conditions: for inhibition of TCTP protein expression over a long period: 6 days after transfection
Experimental: The CR prostate cancer cell line PC-3 was purchased from the American Type Culture Collection (Rockville, Md., USA). The cells were maintained in Dulbecco's Modified Eagle's Medium (Invitrogen, Cergy Pontoise, France), supplemented with 10% fetal calf serum (FCS).
Prostatic cell line were transfected with ASO#15PD, ASO#15PTO, LASO#15PD, LASO#15PTO and LASO#15LNA at various concentrations (from 30 nM to 100 nM), in OptiMEM® medium (Invitrogen), without serum and in the presence or not of Oligofectamine™ transfection reagent (Invitrogen), according to the manufacturer's instructions.
Serum was added 4 hours after transfection. Two or three days after transfection, the level of TCTP protein expression and GAPDH (used as housekeeping gene) were determined by performing western blotting.
Western Blot analysis was performed as described previously (Rocchi et al., 2004, Cancer Res. 64:6595-602) with 1:2000 rabbit TCTP polyclonal antibody (Abcam Inc., Cambridge, UK). Loading levels were normalized using 1:5000 rabbit anti-glyceraldehyde-3-phosphate dehydrogenase polyclonal (Abcam Inc.).
Prostatic cell line were transfected with FASO#15PTO at 100 nM, in OptiMEM® medium (Invitrogen), without serum and in the presence or not of Oligofectamine™ transfection reagent (Invitrogen), according to the manufacturer's instructions.

cell membrane = assay: Penetration of the cell membrane; assay type: cell-based; conditions: compared with ASO#15PTO

Row | Substance | efficiency to inhibit TCTP protein and cell growth [1] | inhibition of TCTP protein expression over a long period (TCTP protein) | also measured
1 | 5′-AACTTGTTTCCTGCAGGTGA-3′ (antisense (5'-AACTTGTTTCCTGCAGGTGA-3'); as printed in the source, key not given here) [#15] | selected |  | 
2 | 5′-ACCAATGAGCGAGTCATCAA-3′ (antisense (5'-ACCAATGAGCGAGTCATCAA-3'); as printed in the source, key not given here) [#10] | selected |  | 
3 | 5′-TGGTTCATGACAATATCGAC-3′ (antisense (5'-TGGTTCATGACAATATCGAC-3'); as printed in the source, key not given here) [#14] | selected |  | 
4 | (C15)2U*5′AAC TTG TTT CCT GCA GGT GA3′ (DNA {(C15)2U}*dA*dA*dC*dT*dT*dG*dT*dT*dT*dC*dC*dT*dG*dC*dA*dG*dG*dT*dG*dA) [LASO#15PTO] |  | strong to complete inhibition | inhibition of TCTP protein expression (TCTP protein; PC-3, in absence of transfection agent, 3 days after transfection): able to inhibit; inhibition of TCTP protein expression (TCTP protein; PC-3, in the presence of Oligofectamine, 30-100 nM, 2 or 3 days after transfection): most efficient; speed of penetrating the cell membrane (cell membrane): more quickly than ASO#15PTO
5 | ASO#15PTO: DNA of sequence SEQ ID NO: 6 with a phosphorothiorate backbone (DNA dA*dA*dC*dT*dT*dG*dT*dT*dT*dC*dC*dT*dG*dC*dA*dG*dG*dT*dG*dA) [reference compound] |  | not the case | 
6 | Flurocarbon 5′AAC TTG TTT CCT GCA GGT GA3′ (DNA {C8F17}-dA*dA*dC*dT*dT*dG*dT*dT*dT*dC*dC*dT*dG*dC*dA*dG*dG*dT*dG*dA) [FASO#15PTO, reference compound] |  |  | inhibition of TCTP protein expression (TCTP protein; PC-3, 100 nM, absence of Oligofectamine, 3 days after transfection): incapable of inhibiting; inhibition of TCTP protein expression (TCTP protein; PC-3, 100 nM, presence of Oligofectamine, 3 days after transfection): incapable of inhibiting
